Test results reported in article PMC12529164, “Design, Synthesis, Structure–Activity Relationships, and Preliminary Anticancer Properties of Menthol-Modified Coumarin Esters and 3,4-Dihydrocoumarin Derivatives” (ACS Omega, 2025).

Test system: Danio rerio larvae
Test: In vivo toxicity, maximum tolerated concentration
Conditions: zebrafish larvae, immersion from 96 hpf for 18 h (120 hpf), 5-150 μM tested
Method: Zebrafish (Danio rerio, strain AB) was maintained at the Experimental Medicine Center, Medical University of Lublin, Poland. Embryos and larvae up to 120 h postfertilization (hpf) were kept under generally accepted environmental conditions, i.e., in incubators at 28.5 °C, with 14/10 h light/dark cycles. The embryos of the Zebrafish were harvested after the natural reproduction process.
Three compounds showing low IC50 values determined on cancer lines in in vitro tests (2b, 4a) and compound 1a characterized by low cytotoxicity were used for in vivo tests. We also conducted research for coumarin. These compounds were dissolved in dimethyl sulfoxide (DMSO) (Sigma-Aldrich, St. Louis, MO, USA) and diluted in the zebrafish medium (pH 7.1–7.3; 5.0 mM NaCl, 0.17 mM KCl, 0.33 mM CaCl2, 0.33 mM MgSO4) to achieve a final DMSO concentration of 1% w/v. Twenty-four hpf zebrafish embryos were investigated under a light microscope, and […] fertilized embryos (n = 60) were selected and transferred into 48-well plates (5 embryos per well). Larvae were incubated in 1 mL of the zebrafish medium for up to 3 days after fertilization.
On the fourth day postfertilization (96 hpf), the larvae (10 individuals per group) were incubated in solutions of coumarin or its three derivatives (1a, 2b, 4a) at selected concentrations (5, 10, 25, 50, 75, 100, 150 μM), along with control solutions: negative control (zebrafish medium) and solvent control (1% DMSO in zebrafish medium). The maximum tolerated concentration (MTC) was calculated to assess the toxicity of the compounds and extracts. […] Larvae were individually inspected under a microscope for signs of acute locomotor dysfunction, including a weak reaction to light tail stimulation with a fine needle, disrupted posture, body deformities, protruding eyes, slowed or absent heartbeat, and mortality.

CC(C)[C@@H]1CC[C@@H](C)C[C@H]1OC(=O)C1C(=O)Oc2ccccc2C1P(=O)(c1ccccc1)c1ccccc1 (mixture of isomers) [Compound 4a, (1R,2S,5R)-2-Isopropyl-5-methylcyclohexyl-4-(diphenylphosphoryl)-2-oxochromane-3-carboxylate]
maximum tolerated concentration (MTC): 75 µM
